Data: the NIST ThermoML archive (doi:10.1016/j.jct.2016.03.021)
± gives the expanded uncertainty stated by the source.

Assay: wn = mass fraction of the nth substance listed
Conditions: Liquid; for mass density: Vibrating tube method

NCCO [2-aminoethan-1-ol] + O
viscosity [mPa·s]
Conditions	w1 = 0.1	w1 = 0.1001	w1 = 0.2	w1 = 0.3	w1 = 0.3005	w1 = 0.4	w1 = 0.4001
313.15 K, 5000 kPa, Falling or rolling sphere viscometry	–	–	–	–	–	–	2.306 ± 0.071
313.15 K, 10000 kPa, Falling or rolling sphere viscometry	–	0.892 ± 0.028	1.182 ± 0.036	–	1.649 ± 0.051	–	2.319 ± 0.072
313.15 K, 20000 kPa, Falling or rolling sphere viscometry	–	0.896 ± 0.028	1.19 ± 0.037	–	1.668 ± 0.051	–	2.352 ± 0.073
313.15 K, 30000 kPa, Falling or rolling sphere viscometry	–	0.899 ± 0.028	1.197 ± 0.037	–	1.686 ± 0.052	–	2.384 ± 0.074
313.15 K, 40000 kPa, Falling or rolling sphere viscometry	–	0.902 ± 0.028	1.205 ± 0.037	–	1.702 ± 0.053	–	2.416 ± 0.075
313.15 K, 60000 kPa, Falling or rolling sphere viscometry	–	0.91 ± 0.028	1.219 ± 0.038	–	1.735 ± 0.054	–	2.479 ± 0.077
313.15 K, 80000 kPa, Falling or rolling sphere viscometry	–	0.918 ± 0.028	1.232 ± 0.038	–	1.77 ± 0.055	–	2.544 ± 0.079
313.15 K, 100000 kPa, Falling or rolling sphere viscometry	–	0.927 ± 0.029	1.249 ± 0.039	–	1.804 ± 0.056	–	2.609 ± 0.081
313.15 K, 120000 kPa, Falling or rolling sphere viscometry	–	0.936 ± 0.029	1.263 ± 0.039	–	1.846 ± 0.057	–	2.675 ± 0.083
333.15 K, 93 kPa, Concentric cylinders viscometry	0.6263 ± 0.014	–	0.7832 ± 0.017	1.084 ± 0.023	–	1.405 ± 0.029	–
333.15 K, 100 kPa, Falling or rolling sphere viscometry	–	0.615 ± 0.019	0.78 ± 0.024	–	1.061 ± 0.033	–	1.389 ± 0.043
333.15 K, 101 kPa, Falling or rolling sphere viscometry	0.615 ± 0.019	–	0.78 ± 0.024	1.061 ± 0.033	–	1.389 ± 0.043	–
333.15 K, 5000 kPa, Falling or rolling sphere viscometry	–	0.614 ± 0.019	0.788 ± 0.024	–	1.067 ± 0.033	–	1.401 ± 0.043
333.15 K, 10000 kPa, Falling or rolling sphere viscometry	–	0.617 ± 0.019	0.792 ± 0.024	–	1.075 ± 0.033	–	1.41 ± 0.044
333.15 K, 20000 kPa, Falling or rolling sphere viscometry	–	0.622 ± 0.019	0.799 ± 0.025	–	1.089 ± 0.034	–	1.434 ± 0.044
333.15 K, 30000 kPa, Falling or rolling sphere viscometry	–	0.625 ± 0.019	0.807 ± 0.025	–	1.103 ± 0.034	–	1.453 ± 0.045

mass density [kg/m3]
Conditions	w1 = 0.1001	w1 = 0.2	w1 = 0.3005	w1 = 0.4
313.15 K, 5000 kPa	997.9 ± 0.7	1001 ± 0.7	1005.1 ± 0.7	1009.3 ± 0.7
313.15 K, 10000 kPa	1000 ± 0.7	1002.9 ± 0.7	1007 ± 0.7	1011.2 ± 0.7
313.15 K, 15000 kPa	1002 ± 0.7	1004.8 ± 0.7	1008.8 ± 0.7	1012.9 ± 0.7
313.15 K, 20000 kPa	1004 ± 0.7	1006.7 ± 0.7	1010.6 ± 0.7	1014.7 ± 0.7
313.15 K, 30000 kPa	1008.1 ± 0.7	1010.5 ± 0.7	1014.3 ± 0.7	1018.2 ± 0.7
313.15 K, 40000 kPa	1012.1 ± 0.7	1014.3 ± 0.7	1017.9 ± 0.7	1021.7 ± 0.7
313.15 K, 50000 kPa	1015.9 ± 0.7	1017.9 ± 0.7	1021.3 ± 0.7	1025.1 ± 0.7
313.15 K, 60000 kPa	1019.8 ± 0.7	1021.5 ± 0.7	1024.8 ± 0.7	1028.4 ± 0.7
313.15 K, 70000 kPa	1023.4 ± 0.7	1025 ± 0.7	1028.2 ± 0.7	1031.7 ± 0.7
313.15 K, 80000 kPa	1027 ± 0.7	1028.5 ± 0.7	1031.4 ± 0.7	1034.8 ± 0.7
313.15 K, 90000 kPa	1030.6 ± 0.7	1031.8 ± 0.7	1034.5 ± 0.7	1037.8 ± 0.7
313.15 K, 100000 kPa	1034.2 ± 0.7	1035.1 ± 0.7	1037.9 ± 0.7	1041.1 ± 0.7
313.15 K, 110000 kPa	1037.6 ± 0.7	1038.4 ± 0.7	1041 ± 0.7	1044 ± 0.7
313.15 K, 120000 kPa	1041.1 ± 0.7	1041.8 ± 0.7	1044.1 ± 0.7	1047 ± 0.7
333.15 K, 100 kPa	986.3 ± 0.7	988.8 ± 0.7	992 ± 0.7	995.3 ± 0.7
333.15 K, 500 kPa	986.5 ± 0.7	988.9 ± 0.7	992.3 ± 0.7	995.6 ± 0.7
333.15 K, 1000 kPa	986.7 ± 0.7	989.1 ± 0.7	992.4 ± 0.7	995.8 ± 0.7
333.15 K, 2000 kPa	987.1 ± 0.7	989.5 ± 0.7	992.8 ± 0.7	996.2 ± 0.7
333.15 K, 5000 kPa	988.4 ± 0.7	990.7 ± 0.7	994 ± 0.7	997.3 ± 0.7
333.15 K, 10000 kPa	990.5 ± 0.7	992.7 ± 0.7	996 ± 0.7	999.3 ± 0.7
333.15 K, 15000 kPa	992.6 ± 0.7	994.7 ± 0.7	997.9 ± 0.7	1001.1 ± 0.7
333.15 K, 20000 kPa	994.6 ± 0.7	996.6 ± 0.7	999.7 ± 0.7	1003 ± 0.7
333.15 K, 30000 kPa	998.6 ± 0.7	1000.5 ± 0.7	–	–
